Measured values from ChEMBL document CHEMBL1697731, “Cheminformatics analysis of assertions mined from literature that describe drug-induced liver injury in different species” (Chem Res Toxicol, 2010).

The compounds below were run on Hepatotoxicity (assay: Literature-mined compound from Fourches et al multi-species drug-induced liver injury (DILI) dataset, effect in rodents). Details: rodentia.

| Structure (SMILES) | Hepatotoxicity |
| --- | --- |
| CCN(CC)CCOc1ccc(C(=C(Cl)c2ccccc2)c2ccccc2)cc1 (stereo in doubt; form 1) [CLOMIPHENE] | no drug-induced liver injury reported |
| CCN1CCCC1CNC(=O)c1cc(S(N)(=O)=O)ccc1OC (stereo unspecified) [SULPIRIDE] | no drug-induced liver injury reported |
| Oc1c2ccccc2c2c3c(cccc13)N=N2 [SP-600125] | drug-induced liver injury reported |
| C[C@]12CCC(=O)C=C1CC[C@@H]1[C@@H]2[C@@H](O)C[C@@]2(C)[C@H]1CC[C@]2(O)C(=O)CO [HYDROCORTISONE] | drug-induced liver injury reported |
| CC1(C)C2CCC1(CS(=O)(=O)[O-])C(=O)C2.O=C1N(Cc2ccccc2)C2C[S+]3CCCC3C2N1Cc1ccccc1 (stereo unspecified) [TRIMETHAPHAN CAMSYLATE] | no drug-induced liver injury reported |
| CNC(=O)OCc1cccc(COC(=O)NC)n1 [PYRICARBATE] | drug-induced liver injury reported |
| Nc1ccc(C(=O)O)cc1 [AMINOBENZOIC ACID] | drug-induced liver injury reported |
| CN1C(=O)NC(=O)C(C)(C2=CCCCC2)C1=O (stereo unspecified) [HEXOBARBITAL] | drug-induced liver injury reported |
| Nc1nc(O)c2ncn(COC(CO)CO)c2n1 [GANCICLOVIR] | no drug-induced liver injury reported |
| FC(F)(F)C(F)(F)C(F)(F)C(F)(F)C(F)(F)C(F)(F)C(F)(F)C(F)(F)Br [PERFLUBRON] | no drug-induced liver injury reported |
| COc1ccc2[nH]c([S+]([O-])Cc3ncc(C)c(OC)c3C)nc2c1 (stereo unspecified) [OMEPRAZOLE] | drug-induced liver injury reported |
| Nc1nc2c(c(=O)[nH]1)N(C=O)C(CNc1ccc(C(=O)N[C@@H](CCC(=O)O)C(=O)O)cc1)CN2 (stereo partly specified) [LEUCOVORIN] | drug-induced liver injury reported |
| O=C(O)c1cc(/N=N/c2ccc(S(=O)(=O)Nc3ccccn3)cc2)ccc1O [SULFASALAZINE] | drug-induced liver injury reported |
| N[C@H]1C(O)O[C@H](CO)[C@@H](O)[C@@H]1O (stereo partly specified) [GLUCOSAMINE] | drug-induced liver injury reported |
| C#C[C@]1(O)CC[C@H]2[C@@H]3CCc4cc(O)ccc4[C@H]3CC[C@@]21C [ETHINYL ESTRADIOL] | drug-induced liver injury reported |
| CC1=C(/C=C/C(C)=C/C=C/C(C)=C\C(=O)O)C(C)(C)CCC1 [ISOTRETINOIN] | no drug-induced liver injury reported |
| C[C@]12C=CC(=O)C=C1CC[C@H]1[C@@H]3C[C@@H](O)[C@](O)(C(=O)CO)[C@@]3(C)C[C@H](O)[C@@]12F [TRIAMCINOLONE] | drug-induced liver injury reported |
| CCc1oc2ccccc2c1C(=O)c1cc(Br)c(O)c(Br)c1 [BENZBROMARONE] | drug-induced liver injury reported |
| O=[N+]([O-])O[C@@H]1CO[C@H]2[C@@H]1OC[C@@H]2O [ISOSORBIDE MONONITRATE] | no drug-induced liver injury reported |
| CC(C)c1ccc(C(=O)NC(=N)N)cc1S(C)(=O)=O [CARIPORIDE] | drug-induced liver injury reported |

Same assay, conditions: rodentia, Liver

| Structure (SMILES) | Hepatotoxicity |
| --- | --- |
| CC(C)(C)NCC(O)c1ccc(O)c(CO)c1 (stereo unspecified) [ALBUTEROL] | drug-induced liver injury reported |
| COc1ccc2c3c1O[C@H]1[C@@H](O)C=C[C@H]4[C@@H](C2)N(C)CC[C@@]341 [CODEINE] | drug-induced liver injury reported |

The compounds below were run on Hepatotoxicity (assay: Literature-mined compound from Fourches et al multi-species drug-induced liver injury (DILI) dataset, effect in humans). Details: human.

| Structure (SMILES) | Hepatotoxicity |
| --- | --- |
| CCN(CC)CCOc1ccc(C(=C(Cl)c2ccccc2)c2ccccc2)cc1 (stereo in doubt; form 1) [CLOMIPHENE] | drug-induced liver injury reported |
| CCN1CCCC1CNC(=O)c1cc(S(N)(=O)=O)ccc1OC (stereo unspecified) [SULPIRIDE] | drug-induced liver injury reported |
| Oc1c2ccccc2c2c3c(cccc13)N=N2 [SP-600125] | drug-induced liver injury reported |
| C[C@]12CCC(=O)C=C1CC[C@@H]1[C@@H]2[C@@H](O)C[C@@]2(C)[C@H]1CC[C@]2(O)C(=O)CO [HYDROCORTISONE] | drug-induced liver injury reported |
| CC1(C)C2CCC1(CS(=O)(=O)[O-])C(=O)C2.O=C1N(Cc2ccccc2)C2C[S+]3CCCC3C2N1Cc1ccccc1 (stereo unspecified) [TRIMETHAPHAN CAMSYLATE] | no drug-induced liver injury reported |
| CNC(=O)OCc1cccc(COC(=O)NC)n1 [PYRICARBATE] | drug-induced liver injury reported |
| Nc1ccc(C(=O)O)cc1 [AMINOBENZOIC ACID] | no drug-induced liver injury reported |
| CN1C(=O)NC(=O)C(C)(C2=CCCCC2)C1=O (stereo unspecified) [HEXOBARBITAL] | no drug-induced liver injury reported |
| Nc1nc(O)c2ncn(COC(CO)CO)c2n1 [GANCICLOVIR] | drug-induced liver injury reported |
| FC(F)(F)C(F)(F)C(F)(F)C(F)(F)C(F)(F)C(F)(F)C(F)(F)C(F)(F)Br [PERFLUBRON] | drug-induced liver injury reported |
| COc1ccc2[nH]c([S+]([O-])Cc3ncc(C)c(OC)c3C)nc2c1 (stereo unspecified) [OMEPRAZOLE] | drug-induced liver injury reported |
| Nc1nc2c(c(=O)[nH]1)N(C=O)C(CNc1ccc(C(=O)N[C@@H](CCC(=O)O)C(=O)O)cc1)CN2 (stereo partly specified) [LEUCOVORIN] | drug-induced liver injury reported |
| O=C(O)c1cc(/N=N/c2ccc(S(=O)(=O)Nc3ccccn3)cc2)ccc1O [SULFASALAZINE] | drug-induced liver injury reported |
| N[C@H]1C(O)O[C@H](CO)[C@@H](O)[C@@H]1O (stereo partly specified) [GLUCOSAMINE] | no drug-induced liver injury reported |
| C#C[C@]1(O)CC[C@H]2[C@@H]3CCc4cc(O)ccc4[C@H]3CC[C@@]21C [ETHINYL ESTRADIOL] | drug-induced liver injury reported |
| CC1=C(/C=C/C(C)=C/C=C/C(C)=C\C(=O)O)C(C)(C)CCC1 [ISOTRETINOIN] | drug-induced liver injury reported |
| C[C@]12C=CC(=O)C=C1CC[C@H]1[C@@H]3C[C@@H](O)[C@](O)(C(=O)CO)[C@@]3(C)C[C@H](O)[C@@]12F [TRIAMCINOLONE] | no drug-induced liver injury reported |
| CCc1oc2ccccc2c1C(=O)c1cc(Br)c(O)c(Br)c1 [BENZBROMARONE] | drug-induced liver injury reported |
| O=[N+]([O-])O[C@@H]1CO[C@H]2[C@@H]1OC[C@@H]2O [ISOSORBIDE MONONITRATE] | drug-induced liver injury reported |
| CC(C)c1ccc(C(=O)NC(=N)N)cc1S(C)(=O)=O [CARIPORIDE] | no drug-induced liver injury reported |

Same assay, conditions: human, Liver

| Structure (SMILES) | Hepatotoxicity |
| --- | --- |
| CC(C)(C)NCC(O)c1ccc(O)c(CO)c1 (stereo unspecified) [ALBUTEROL] | no drug-induced liver injury reported |
| COc1ccc2c3c1O[C@H]1[C@@H](O)C=C[C@H]4[C@@H](C2)N(C)CC[C@@]341 [CODEINE] | drug-induced liver injury reported |

The compounds below were run on Hepatotoxicity (assay: Literature-mined compound from Fourches et al multi-species drug-induced liver injury (DILI) dataset, effect in non-rodents). Details: not given.

| Structure (SMILES) | Hepatotoxicity |
| --- | --- |
| CCN(CC)CCOc1ccc(C(=C(Cl)c2ccccc2)c2ccccc2)cc1 (stereo in doubt; form 1) [CLOMIPHENE] | no drug-induced liver injury reported |
| CCN1CCCC1CNC(=O)c1cc(S(N)(=O)=O)ccc1OC (stereo unspecified) [SULPIRIDE] | drug-induced liver injury reported |
| Oc1c2ccccc2c2c3c(cccc13)N=N2 [SP-600125] | no drug-induced liver injury reported |
| C[C@]12CCC(=O)C=C1CC[C@@H]1[C@@H]2[C@@H](O)C[C@@]2(C)[C@H]1CC[C@]2(O)C(=O)CO [HYDROCORTISONE] | drug-induced liver injury reported |
| CC1(C)C2CCC1(CS(=O)(=O)[O-])C(=O)C2.O=C1N(Cc2ccccc2)C2C[S+]3CCCC3C2N1Cc1ccccc1 (stereo unspecified) [TRIMETHAPHAN CAMSYLATE] | drug-induced liver injury reported |
| CNC(=O)OCc1cccc(COC(=O)NC)n1 [PYRICARBATE] | no drug-induced liver injury reported |
| Nc1ccc(C(=O)O)cc1 [AMINOBENZOIC ACID] | no drug-induced liver injury reported |
| CN1C(=O)NC(=O)C(C)(C2=CCCCC2)C1=O (stereo unspecified) [HEXOBARBITAL] | no drug-induced liver injury reported |
| Nc1nc(O)c2ncn(COC(CO)CO)c2n1 [GANCICLOVIR] | no drug-induced liver injury reported |
| FC(F)(F)C(F)(F)C(F)(F)C(F)(F)C(F)(F)C(F)(F)C(F)(F)C(F)(F)Br [PERFLUBRON] | drug-induced liver injury reported |
| COc1ccc2[nH]c([S+]([O-])Cc3ncc(C)c(OC)c3C)nc2c1 (stereo unspecified) [OMEPRAZOLE] | no drug-induced liver injury reported |
| Nc1nc2c(c(=O)[nH]1)N(C=O)C(CNc1ccc(C(=O)N[C@@H](CCC(=O)O)C(=O)O)cc1)CN2 (stereo partly specified) [LEUCOVORIN] | no drug-induced liver injury reported |
| O=C(O)c1cc(/N=N/c2ccc(S(=O)(=O)Nc3ccccn3)cc2)ccc1O [SULFASALAZINE] | no drug-induced liver injury reported |
| N[C@H]1C(O)O[C@H](CO)[C@@H](O)[C@@H]1O (stereo partly specified) [GLUCOSAMINE] | no drug-induced liver injury reported |
| C#C[C@]1(O)CC[C@H]2[C@@H]3CCc4cc(O)ccc4[C@H]3CC[C@@]21C [ETHINYL ESTRADIOL] | drug-induced liver injury reported |
| CC1=C(/C=C/C(C)=C/C=C/C(C)=C\C(=O)O)C(C)(C)CCC1 [ISOTRETINOIN] | no drug-induced liver injury reported |
| C[C@]12C=CC(=O)C=C1CC[C@H]1[C@@H]3C[C@@H](O)[C@](O)(C(=O)CO)[C@@]3(C)C[C@H](O)[C@@]12F [TRIAMCINOLONE] | no drug-induced liver injury reported |
| CCc1oc2ccccc2c1C(=O)c1cc(Br)c(O)c(Br)c1 [BENZBROMARONE] | no drug-induced liver injury reported |
| O=[N+]([O-])O[C@@H]1CO[C@H]2[C@@H]1OC[C@@H]2O [ISOSORBIDE MONONITRATE] | no drug-induced liver injury reported |
| CC(C)c1ccc(C(=O)NC(=N)N)cc1S(C)(=O)=O [CARIPORIDE] | no drug-induced liver injury reported |

Same assay, conditions: Liver

| Structure (SMILES) | Hepatotoxicity |
| --- | --- |
| CC(C)(C)NCC(O)c1ccc(O)c(CO)c1 (stereo unspecified) [ALBUTEROL] | no drug-induced liver injury reported |
| COc1ccc2c3c1O[C@H]1[C@@H](O)C=C[C@H]4[C@@H](C2)N(C)CC[C@@]341 [CODEINE] | no drug-induced liver injury reported |
